Measured values from article PMC7363588, “Mapping of the FGF14:Nav1.6 complex interface reveals FLPK as a functionally active peptide modulating excitability” (Physiological Reports, 2020).
Values joined by “and” are separate entries in the source; they are usually repeats but may differ in a detail not shown here. Identical values can stand only once. “Also recorded” adds a separate entry of the source. Marks after values point to notes of the source that are not given here. Peptide text beside a SMILES is read from it.

Tests used:
[1] = target: T1, Nav1.6 in the presence of FGF14 (FGF14-1b-GFP) (Homo sapiens, UniProt Q92915); assay: Whole-cell patch-clamp, HEK-Nav1.6 cells expressing FGF14-GFP; assay type: cell-based; details: 50 μM FLPK
T1 construct: expressed in transfected cells
T1 sequence (Q92915 1-252 isoform Q92915-2): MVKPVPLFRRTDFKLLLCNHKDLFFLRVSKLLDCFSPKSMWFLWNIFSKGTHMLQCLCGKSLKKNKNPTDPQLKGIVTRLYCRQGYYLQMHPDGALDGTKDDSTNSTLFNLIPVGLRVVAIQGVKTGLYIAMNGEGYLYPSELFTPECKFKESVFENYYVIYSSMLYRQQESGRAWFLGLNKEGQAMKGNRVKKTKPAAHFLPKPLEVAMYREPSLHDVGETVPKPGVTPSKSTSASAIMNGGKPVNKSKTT
From the text: (§1) Plasmids used in this study derived from the following clones: human FGF14‐1b isoform (accession number: NM_175929.2) and human Nav1.6 (accession number: NM_014191.3). The CLuc‐FGF14, CD4‐Nav1.6‐NLuc, constructs and the pcDNA3.1 vector (Invitrogen, Carlsbad, CA) were engineered and characterized as previously described (Goetz et al., 2009; Shavkunov et al., 2012,2013,2015; Ali et al., 2016, 2018; Wadsworth et al., 2019). The plasmid pGL3 expressing full length Firefly (Photinus pyralis) luciferase was a gift from Dr. P. Sarkar (Department of Neurology, UTMB). For protein purification studies, cDNAs encoding FGF14‐1b (accession number NP_787125; aa 64–252) or the C‐terminal tail of Nav1.6 (accession number #NP_001171455; aa 1756–1939) were subcloned into suitable pET bacterial expression vectors (pET28a‐FGF14; pET30a‐Nav1.6) with a 6X His‐tag at the N‐terminal site; these plasmids were a gift of Dr. Moosa Mohammadi (NYU, Langone Medical Center). The mutation coding for FGF14^V160A was generated by site‐directed mutagenesis and PCR using FGF14‐1b as a template described previously (Ali et al., 2016). For electrophysiological studies FGF14‐GFP (human) and FGF14‐ΔNT‐GFP (human) were cloned into the GFP plasmid (pQBI‐fC2; Quantum Biotechnology Inc., Montreal, Canada) as previously described.
(§2) HEK293 cells were maintained in DMEM and F‐12 (Invitrogen, Carlsbad, CA), supplemented with 0.05% glucose, 0.5 mM pyruvate, 10% fetal bovine serum, 100 units/ml penicillin, and 100 µg/ml streptomycin (Invitrogen), and incubated at 37 °C with 5% CO2. HEK293 cells stably expressing the human Nav1.6 channel (hereafter referred to as HEK‐Nav1.6 cells) were maintained similarly except for the addition of 500 μg/ml G418 (Invitrogen) to maintain stable Nav1.6 expression. Cells were transfected at 80%–90% confluence with equal amount (1 μg each) of plasmid pairs using Lipofectamine 2000 (Invitrogen) according to manufacturer's instructions. HEK‐Nav1.6 cells were washed and replated at very low density prior to electrophysiological recordings (Ali et al., 2016, 2018; Scala et al., 2018; Wadsworth et al., 2019).
(§3) HEK‐Nav1.6 cells transfected with GFP or FGF14‐GFP were plated at low density on glass cover slips for 3–4 hr and subsequently transferred to the recording chamber. Recordings were performed at room temperature (20–22°C) 24 hr posttransfection using a MultiClamp 700B amplifier (Molecular Devices, Sunnyvale, CA). The composition of recording solutions consisted of the following salts; extracellular (mM): 140 NaCl, 3 KCl, 1 MgCl2, 1 CaCl2, 10 HEPES, 10 glucose, pH 7.3; intracellular (mM): 130 CH3O3SCs, 1 EGTA, 10 NaCl, 10 HEPES, pH 7.3. Membrane capacitance and series resistance were estimated by the dial settings on the amplifier and compensated for electronically by 70%–75%. Data were acquired at 20 kHz and filtered at 5 kHz prior to digitization and storage. All experimental parameters were controlled by Clampex 9.2 software (Molecular Devices) and interfaced to the electrophysiological equipment using a Digidata 1,200 analog‐digital interface (Molecular Devices). Voltage‐dependent inward currents for HEK‐Nav1.6 cells were evoked by depolarization to test potentials between −100 mV and +60 mV from a holding potential of −70 mV followed by a voltage prestep pulse of −120 mV (Nav1.6). Steady‐state (fast) inactivation of Nav channels was measured with a paired‐pulse protocol. From the holding potential, cells were stepped to varying test potentials between −120 mV (Nav1.6) and +20 mV (prepulse) prior to a test pulse to −20 mV.
(§4) Current densities were obtained by dividing Na^+ current (INa) amplitude by membrane capacitance. Current–voltage relationships were generated by plotting current density as a function of the […]. Conductance (GNa) was calculated by the following equation: GNa=INa/Vm‐Erev where INa ^+ is the current amplitude at voltage Vm, and Erev is the Na^+ reversal potential. […]

[2] = test system: Nav1.6 in the presence of FGF14-ΔNT-GFP; assay: Whole-cell patch-clamp, HEK-Nav1.6 cells expressing FGF14-ΔNT-GFP; assay type: cell-based, human; details: 50 μM FLPK
From the text: as §1, §2, §3, §4

## CC(=O)N[C@@H](Cc1ccccc1)C(=O)N[C@@H](CC(C)C)C(=O)N1CCC[C@H]1C(=O)N[C@@H](CCCCN)C(N)=O [FLPK] (Ac-FLPK-NH2)
[1]; FGF14-GFP, at −10 mV, mean ± SEM (n = 21), DMSO −16.8 ± 3.3, p < .05 vs FGF14-GFP (DMSO)
  Peak density (I Na): −49.6 ± 7.2 pA/pF and −49.6 ± 7.2 (21) ^c pA/pF
[1]; FGF14-GFP, mean ± SEM (n = 11), DMSO 5.7 ± 0.4
  Kact: 5.7 ± 0.5 (11) ^h,i mV
[1]; FGF14-GFP, mean ± SEM (n = 11), DMSO −16.6 ± 1.0
  Activation (V1/2): −20.8 ± 1.5 mV and −20.8 ± 1.5 (11) mV
[1]; FGF14-GFP, mean ± SEM (n = 11 in Table 3; n = 14 in text), DMSO −54.9 ± 1.1
  Steady-state Inactivation (V1/2): −59.2 ± 2.1 (11) mV
[1]; FGF14-GFP, mean ± SEM (n = 14), DMSO 5.9 ± 0.9
  Kinact: 5.9 ± 0.6 (14) mV
[1]; FGF14 wild type, hyperpolarizing direction
  shift of V1/2 of activation vs DMSO control: −4 mV
[1]; HEK-Nav1.6 FGF14-GFP
  effect on FGF14-dependent phenotypes of Nav1.6 currents: effectively restored I Na to values that were statistically comparable to the GFP + DMSO control; also recorded: inhibited previously reported modulatory effects of FGF14 (1b isoform) on Nav1.6 currents
[2]; FGF14-ΔNT-GFP
  effect on Nav1.6 currents in absence of FGF14 N-terminal domain: insensitive to FLPK; also recorded: no effects on any other parameters associated with FGF14‐GFP regulation; also recorded: unaffected by FLPK
[2]; ΔNT-FGF14-GFP, at −10 mV, mean ± SEM (n = 11), DMSO 1.091 ± 0.07
  Tau (τ), decay time constant of I Na: 1.137 ± 0.08 (11) ms
[2]; ΔNT-FGF14-GFP, mean ± SEM (n = 11), DMSO 4.61 ± 0.3
  Kact: 1.63 ± 0.23 (11) mV
[2]; ΔNT-FGF14-GFP, mean ± SEM (n = 11), DMSO 6.4 ± 0.44
  Kinact: 6.75 ± 0.32 (11) mV
[2]; ΔNT-FGF14-GFP, mean ± SEM (n = 11), DMSO –21.2 ± 0.36, p < .001
  Activation (V1/2): –37.43 ± 0.3 (11) ^ l , ^ o,p,q mV
[2]; ΔNT-FGF14-GFP, mean ± SEM (n = 11), DMSO –70.2 ± 0.53
  Steady-state Inactivation (V1/2): –68.3 ± 0.34 (11) ^o,p,q mV
